Experimental data as given in article PMC7922534, “Searching for Peptide Inhibitors of T Regulatory Cell Activity by Targeting Specific Domains of FOXP3 Transcription Factor” (Biomedicines, 2021).

Legend:
[1] = system: murine CD4+CD25+ Treg cells; experiment: In vitro Treg inhibition: anti-CD3 stimulated effector T cells co-cultured with Treg cells, tritiated thymidine incorporation; assay type: cell-based, mouse; conditions: peptide 50 μM; for Treg inhibitory capacity in vitro (proliferation of effector T cells with anti-CD3 in presence of Treg): BALB/c Teff 10^5 + Treg 10^4 cells/well, 3 days, tritiated thymidine; for toxicity in Teff&Treg co-cultures: cpm below cpm of Teff&Treg co-cultures without peptide
Protocol: (§1) In vitro assays were carried out using (i) the Karpas 299 human cell line (ACC-31, DSMZ, Germany), derived from a human lymphoma with a regulatory T cell profile or (ii) using natural Treg cells isolated from the murine splenocytes. To evaluate the effect of peptides on the immunosuppressive activity of the Karpas 299 cell line, a “mixed lymphocyte reaction” (MLR) assay was carried out using peripheral blood mononuclear cells (PBMCs) from two donors (previously tested to induce a strong MLR reaction in co-culture) (1 × 10^5 cells/well per each PBMC) in the presence or absence of Karpas 299 (1 × 10^4 cells/well). Peptides were added at 50 μM to the co-cultures to evaluate their capacity to restore the production of interferon-gamma (IFN-γ) inhibited by Karpas 299. After 48 hours, the supernatants were extracted to measure interferon-gamma (IFN-γ) by means of a commercial ELISA (Pharmingen, San Diego, CA, US). In vitro assays for Treg inhibition using natural Treg cells: Murine CD4+CD25+ (Treg cells), and CD4+CD25-T-cells (effector T cells) were purified from murine spleen cells by using a murine regulatory T-cell isolation kit (Miltenyi Biotec, Bergisch Gladbach, Germany) according to the manufacturer’s instructions. The purity of the resulting T-cell populations was confirmed to be >95% by flow cytometry. Inhibition of murine T regulatory cell function was measured in an in vitro assay of T-cell stimulation. Effector T cells (10^5 cells/well) from BALB/c mice were stimulated in vitro with 2, 5 μg/mL of anti-mouse CD3 antibody (Pharmingen) in the presence/absence of purified Treg cells (10^4 cells/well) and the indicated peptides (50 μM). T-cell proliferation was measured 3 days later as previously described. Percentage of Treg inhibition was calculated using the following formula: % inhibition= 100*((cpm of Teff&Treg co-cultures in the presence of peptide - cpm of Teff&Treg co-cultures)/(cpm of Teff - cpm of Teff&Treg co-cultures)). The Institutional Review Board on Human Subjects (Clínica Universidad de Navarra, Ref 2016.118) approved this research, and informed consent was obtained from all blood donors.

4T1-FOXP3 cells = experiment: Proliferation of 4T1-Ctrl and 4T1-FOXP3 tumor cells in vitro; assay type: cell-based; conditions: peptide 50 μM, Figure 2C
Protocol: The cell line 4T1-FOXP3 expressing FOXP3 was generated. 4T1-WT cells were transfected with empty pcDNA3.1 or with pcDNA3.1 FOXP3, expressing FOXP3 gene and neomycin (which confers resistance to G418 antibiotic) to generate 4T1-Ctrl and 4T1-Foxp3 cells. Briefly, 8 × 10^5 cells were seeded in 6-well culture plates one day prior to transfection. The cultures were 60–80% confluent at the time of transfection. Cells were transfected with 5 ug plasmid DNA per well for 6 hours using lipofectimine 2000 transfection reagent (Invitrogen). After 48 hours, 0.3 mg/mL of G418 drug (GIBCO) was added to the culture during 14 days for the selection of resistant cells. These cells were used in vitro to measure the effect of peptides to overcome the proliferative capacity inhibited by FOXP3. In addition, 4T1-FOXP3 and 4T1-Ctrl cells were injected in vivo (10^5 cells/ mouse) subcutaneously or intravenously to compare their capacity to induce tumors and lung metastases. Murine Lewis lung carcinoma expressing OVA, LLCOVA were kindly provided by Dr. Daniel Ajona (CIMA). The murine colon adenocarcinoma cell line MC38, LLOOVA, 4T1-Ctrl, and 4T1-FOXP3 were cultured in mouse medium (RPMI 1640, 10% fetal calf serum (Sigma), 100 U/mL penicillin, 100 μg/mL streptomycin (Invitrogene), […] Gentamicin (Gibco), 2 mM L-Glutamine (Lifetechnologies), […] β-mercaptoethanol (Sigma), and fungizone (GIBCO). All cell lines were cultured at 37 °C in a humidified atmosphere with 6.5% CO2.

[2] = system: Karpas 299 human cell line; experiment: Mixed lymphocyte reaction with Karpas 299 Treg cell line, IFN-γ by ELISA; assay type: cell-based; conditions: MLR of PBMCs from two donors + Karpas 299, peptide 50 μM, 48 h
Protocol: as §1

FOXP3 = experiment: Surface plasmon resonance binding of peptides to a chip coated with FOXP3; conditions: peptide 10 μM; Figure 4A
Protocol: (§2) The screening of peptide binders to FOXP3 was performed by surface plasmon resonance (SPR) using a ProteOn XPR36 (Bio-Rad, Hercules CA, USA) optical biosensor. Recombinant protein FOXP3-6His produced and purified from E-coli was immobilized covalently onto a GLC sensor chip (Bio-Rad) using the coupling reagents sulfo-NHS (N-Hydroxysulfosuccinimide) and EDC (1-Ethyl-3-(3-dimethylaminopropyl) carbodiimide, (Bio-Rad) as previously described. Peptide solutions (10 μM) were injected by triplicate in running buffer (phosphate-buffered saline, 0.005% (v/v) Tween 20, pH 7.4) at a flow of 30 μL/min. The interspot signal (obtained in the chip surface not immobilized with protein) was used as reference. FOXP3/NFAT1 and FOXP3/AML1 interactions were analyzed by Alphascreen technology as previously described according to the manufacturer’s protocol (Perkin Elmer, Benelux). Reactions were performed in a 40 μL final volume in 96-well Optiwell microtiter plates (Perkin Elmer). The reaction buffer contained 20 mM HEPES (4-(2-hydroxyethyl)-1-piperazineethanesulfonic acid), pH 7.9, 200 mM KCl, 1 mM MgCl2 and 0.05% bovine serum albumin (BSA). Recombinant NFAT1 expressed with a hexa-Histidine tag was captured by nickel chelate acceptor beads, whereas recombinant FOXP3 expressed with a GST (glutathione S-transferase) tag was captured by glutathione donor beads (Perkin Elmer). For FOXP3 dimerization assays, GST-tagged FOXP3 and His-tagged FOXP3 were co-cultured in the presence or absence of the indicated peptides for 1 h. Then, donor and acceptor beads were added as described above and incubated for 2 h. FOXP3/AML1 interaction was measured following a similar protocol using FOXP3-GST and AML1-His proteins. Exposure of the reaction to direct light was avoided as much as possible, and the emission of light from the acceptor beads was measured in the EnVision plate reader after the indicated incubation period (Perkin Elmer, Benelux).

[3] = system: murine CD4+CD25+ Treg cells; experiment: In vitro Treg inhibition: anti-CD3 stimulated effector T cells co-cultured with Treg cells, tritiated thymidine incorporation; assay type: cell-based, mouse; conditions: peptide 10 μM (not shown)
FOXP3/NFAT1 = experiment: FOXP3/NFAT interaction by Alphascreen; assay type: binding; conditions: alpha screen; Figure 6C
Protocol: as §2, with “The reaction buffer contained 20 mM HEPES (4-(2-hydroxyethyl)-1-piperazineethanesulfonic acid), pH 7.9, 200 mM KCl, 1 mM MgCl2 and 0.05% bovine serum albumin (BSA). Recombinant NFAT1 expressed with a hexa-Histidine tag was captured by nickel chelate acceptor beads, whereas recombinant FOXP3 expressed with a GST (glutathione S-transferase) tag was captured by glutathione donor beads (Perkin Elmer). For FOXP3 dimerization assays, GST-tagged FOXP3 and His-tagged FOXP3 were co-cultured in the presence or absence of the indicated peptides for 1 h. Then, donor and acceptor beads were added as described above and incubated for 2 h.” left out

FOXP3-6His = target: T1, FOXP3-6His (UniProt Q9BZS1-1 1-417); experiment: SPR; FOXP3-6His immobilised covalently on a GLC sensor chip (ProteOn XPR36); peptides 10 uM injected in triplicate; PBS, 0.005% Tween 20, pH 7.4; 30 uL/min; interspot signal as reference; conditions: both partners purified
T1 construct: FOXP3 (Forkhead box protein 3) transcription factor; also called His-tagged FOXP3
T1 sequence (looked up): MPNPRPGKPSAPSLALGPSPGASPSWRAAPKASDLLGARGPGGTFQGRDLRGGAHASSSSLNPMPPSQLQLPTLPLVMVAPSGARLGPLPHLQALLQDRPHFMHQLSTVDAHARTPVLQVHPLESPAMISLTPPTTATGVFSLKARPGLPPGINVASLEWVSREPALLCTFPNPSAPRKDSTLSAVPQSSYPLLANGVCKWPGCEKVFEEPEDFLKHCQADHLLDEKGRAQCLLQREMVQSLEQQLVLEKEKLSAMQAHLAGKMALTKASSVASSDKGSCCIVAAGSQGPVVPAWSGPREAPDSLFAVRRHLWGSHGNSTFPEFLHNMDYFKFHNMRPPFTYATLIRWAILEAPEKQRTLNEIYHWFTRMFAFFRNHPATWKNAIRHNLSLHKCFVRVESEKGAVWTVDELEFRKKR

Molecule: CGISYGRKKRRQRRR-KCFVRVESEKG [TAT-393–403, peptide F393–403 fused to the cell-penetrating peptide TAT (Tat 44–57)]
- Treg inhibitory capacity in vitro (proliferation of effector T cells with anti-CD3 in presence of Treg) [1]: significantly improved the Treg inhibitory capacity

Molecule: GGFSLHPWWRFNHDR [p65]
- effect on tumor-suppressor activity of FOXP3 (proliferation of 4T1-FOXP3 versus 4T1-Ctrl cells) (4T1-FOXP3 cells): able to inhibit the tumor-suppressor activity
- Treg inhibitory capacity (Karpas MLR assays) [2]: potential Treg inhibitory capacity

Molecule: IRGLRFGPGFMWPTL [p50]
- effect on tumor-suppressor activity of FOXP3 (proliferation of 4T1-FOXP3 versus 4T1-Ctrl cells) (4T1-FOXP3 cells): able to inhibit the tumor-suppressor activity
- Treg inhibitory capacity (Karpas MLR assays) [2]: potential Treg inhibitory capacity

Molecule: IYHWFTRMFAFFRNH [F363–377, 15-mer overlapping peptide from the FKH domain of FOXP3]
- binding capacity to FOXP3 by SPR (FKH domain peptides) (FOXP3): good binders to FOXP3
- Treg inhibitory capacity in vitro [3]: did not exhibit Treg inhibitory capacity
- toxicity in Teff&Treg co-cultures [3]: no toxicity was observed
- toxicity in Teff&Treg co-cultures [1]: some toxicity

Molecule: KCFVRVESEKGAVWT [F393–407, 15-mer overlapping peptide from the FKH domain of FOXP3]
- level of T-cell proliferation in presence of peptide versus anti-CD3 stimulated T-cells without Treg [1]: surpassed the maximum proliferation of T-cells stimulated with anti-CD3 in the absence of Treg cells
- Treg inhibitory capacity in vitro (proliferation of effector T cells with anti-CD3 in presence of Treg) [1]: strong Treg inhibitory capacity

Molecule: NAIRHNLSLHKCFVR [F383–397, 15-mer overlapping peptide from the FKH domain of FOXP3]
- binding capacity to FOXP3 by SPR (FKH domain peptides) (FOXP3): good binders to FOXP3

Molecule: NLSLHKCFVRVESEK [F388–402, 15-mer overlapping peptide from the FKH domain of FOXP3]
- Treg inhibitory capacity in vitro (proliferation of effector T cells with anti-CD3 in presence of Treg) [1]: strong Treg inhibitory capacity

Molecule: PATWKNAIRHNLSLH [F378–392, 15-mer overlapping peptide from the FKH domain of FOXP3]
- binding capacity to FOXP3 by SPR (FKH domain peptides) (FOXP3): good binders to FOXP3

Molecule: RRIVSQLLHPLWSMP [p61]
- Treg inhibitory capacity (Karpas MLR assays) [2]: potential Treg inhibitory capacity

Molecule: RRQIHLVLPWRAVQS [p52]
- effect on tumor-suppressor activity of FOXP3 (proliferation of 4T1-FOXP3 versus 4T1-Ctrl cells) (4T1-FOXP3 cells): able to inhibit the tumor-suppressor activity
- Treg inhibitory capacity (Karpas MLR assays) [2]: potential Treg inhibitory capacity

Molecule: RSRFFAPFAFLSSGL [p53]
- Treg inhibitory capacity (Karpas MLR assays) [2]: potential Treg inhibitory capacity

Molecule: RTLNEIYHWFTRMFA [F358–372, 15-mer overlapping peptide from the FKH domain of FOXP3]
- Treg inhibitory capacity in vitro (proliferation of effector T cells with anti-CD3 in presence of Treg) [1]: strong Treg inhibitory capacity

Molecule: RVESEKGAVW [397–406 L, linear version of peptide F397–406 from the FKH domain]
- disruption of FOXP3-NFAT heterodimerization (FOXP3/NFAT1): retained the activity to impair Foxp3/NFAT interaction

Molecule: TRMFAFFRNHPATWK [F368–382, 15-mer overlapping peptide from the FKH domain of FOXP3]
- binding capacity to FOXP3 by SPR (FKH domain peptides) (FOXP3): good binders to FOXP3
- Treg inhibitory capacity in vitro [3]: did not exhibit Treg inhibitory capacity
- toxicity in Teff&Treg co-cultures [3]: no toxicity was observed
- toxicity in Teff&Treg co-cultures [1]: some toxicity

Molecule: WAILEAPEKQRTLNE [F348–362, 15-mer overlapping peptide from the FKH domain of FOXP3]
- Treg inhibitory capacity in vitro (proliferation of effector T cells with anti-CD3 in presence of Treg) [1]: strong Treg inhibitory capacity

Molecule: RDFQSFRKMWPFFAM (source: synthetic peptide) [p60]
- SPR response (FOXP3-6His): > 500 RU

Molecule: SSKSLAAPLGLFVVG (source: synthetic peptide) [p55]
- SPR response (FOXP3-6His): > 500 RU

Molecule: IRGLRFGPGFMWPTL (source: synthetic peptide) [p50]
- SPR response (FOXP3-6His): > 500 RU

Molecule: GGFSLHPWWRFNHDR (source: synthetic peptide) [p65]
- SPR response (FOXP3-6His): > 500 RU

Molecule: RFWDYDLMLRVLRPL (source: synthetic peptide) [p59]
- SPR response (FOXP3-6His): > 500 RU

Molecule: RRQIHLVLPWRAVQS (source: synthetic peptide) [p52]
- SPR response (FOXP3-6His): > 500 RU

Molecule: GLRERMRLPFFVFGG (source: synthetic peptide) [p49]
- SPR response (FOXP3-6His): > 500 RU

Molecule: GMRFFPWLGVGFAMR (source: synthetic peptide) [p47]
- SPR response (FOXP3-6His): > 500 RU
